Experimental data published in patent US7417050B2 (priority 2002, dated 2008).

Target: α7 nAChR subtype (Rattus norvegicus, UniProt Q05941)
Type: binding
Conditions: read-out: KD of radioligand

Sequence of α7 nAChR subtype (Q05941 23-502 limits assumed): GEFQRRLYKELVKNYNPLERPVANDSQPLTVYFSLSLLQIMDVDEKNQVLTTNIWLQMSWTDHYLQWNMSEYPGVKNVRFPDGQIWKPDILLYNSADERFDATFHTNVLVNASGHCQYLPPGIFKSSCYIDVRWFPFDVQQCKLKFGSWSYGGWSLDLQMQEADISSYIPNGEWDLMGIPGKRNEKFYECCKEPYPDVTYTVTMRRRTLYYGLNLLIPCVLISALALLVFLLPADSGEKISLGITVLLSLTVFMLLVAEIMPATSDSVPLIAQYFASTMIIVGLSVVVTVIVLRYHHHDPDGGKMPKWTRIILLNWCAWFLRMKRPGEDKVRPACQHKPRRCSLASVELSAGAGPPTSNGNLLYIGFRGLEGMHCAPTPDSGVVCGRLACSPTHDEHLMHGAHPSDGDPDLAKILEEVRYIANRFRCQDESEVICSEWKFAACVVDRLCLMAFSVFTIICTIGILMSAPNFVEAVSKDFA

Substance [^125I]-α-Bungarotoxin [[^125I]-α-BTX] has a Kd of 1.67 nM.
